Laboratory results published in US20230372498A1, “PLK1 SELECTIVE DEGRADATION INDUCING COMPOUND” (UPPTHERA, priority 2020, published 2023).

Biological target: T1, PLK1 (Homo sapiens, UniProt P53350)
T1 construct: endogenous in cells; host or cells: HeLa
Test: PLK1 protein degradation in HeLa cells, Western blotting (PLK1/GAPDH ratio)
Assay type: cell-based
Details: 6 hours compound incubation; for DC50: measured only if the grade of Dmax is A or B; for Dmax: thymidine block and release, 10 points three-fold from 3 μM, PLK1 to GAPDH ratio, read-out: Dmax
Outline: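 Thymidine-synchronised HeLa cells (2 mM, 24 h) released 4 h into complete medium, then treated 6 h with compound in 10-point 3-fold dilutions from 3 μM. RIPA lysates (15 μg protein) run on SDS-PAGE; PLK1 Western blot normalised to GAPDH.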

T1 sequence (P53350 whole entry): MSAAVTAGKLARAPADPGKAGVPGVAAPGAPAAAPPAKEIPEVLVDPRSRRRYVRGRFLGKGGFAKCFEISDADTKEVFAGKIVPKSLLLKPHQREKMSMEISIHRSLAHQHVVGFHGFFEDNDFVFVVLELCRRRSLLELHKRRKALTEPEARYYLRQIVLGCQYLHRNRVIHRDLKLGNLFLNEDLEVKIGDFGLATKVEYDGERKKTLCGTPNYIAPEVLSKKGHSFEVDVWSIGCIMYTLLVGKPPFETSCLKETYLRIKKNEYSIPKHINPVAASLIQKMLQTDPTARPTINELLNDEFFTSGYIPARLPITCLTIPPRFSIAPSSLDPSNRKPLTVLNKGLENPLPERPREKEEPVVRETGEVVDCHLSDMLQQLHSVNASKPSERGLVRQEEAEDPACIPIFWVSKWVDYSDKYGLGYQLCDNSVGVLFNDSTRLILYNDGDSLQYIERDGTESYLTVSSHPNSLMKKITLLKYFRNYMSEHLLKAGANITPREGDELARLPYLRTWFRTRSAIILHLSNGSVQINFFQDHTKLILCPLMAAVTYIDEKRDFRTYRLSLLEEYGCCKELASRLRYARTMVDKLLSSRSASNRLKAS

| Structure (SMILES) | DC50 | Dmax |
| --- | --- | --- |
| COc1cc(C(=O)N[C@H]2CCN(C(=O)CCC(=O)N3CCN(c4ccc5c(c4)C(=O)N(C4CCC(=O)NC4=O)C5=O)CC3)C2)ccc1Nc1ncc2c(n1)N(C1CCCC1)CC(F)(F)C(=O)N2C (stereo partly drawn) [Compound 145, 4-((9-cyclopentyl-7,7-difluoro-5-methyl-6-oxo-6,7,8,9-tetrahydro-5H-pyrimido[4,5-b][1,4]diazepin-2-yl)amino)-N-((3S)-1-(4-(4-(2-(2,6-dioxopiperidin-3-yl)-1,3-dioxoisoindolin-5-yl)piperazin-1-yl)-4-oxobutanoyl)pyrrolidin-3-yl)-3-methoxybenzamide] | > 500 nM | 60 to 80% |
| COc1cc(C(=O)N[C@@H]2CCN(C(=O)CCCCN3CCN(c4ccc5c(c4)C(=O)N(C4CCC(=O)NC4=O)C5=O)CC3)C2)c(F)cc1Nc1ncc2c(n1)N(C1CCCC1)CC(F)(F)C(=O)N2C (stereo partly drawn) [Compound 139, 4-((9-cyclopentyl-7,7-difluoro-5-methyl-6-oxo-6,7,8,9-tetrahydro-5H-pyrimido[4,5-b][1,4]diazepin-2-yl)amino)-N-((3R)-1-(5-(4-(2-(2,6-dioxopiperidin-3-yl)-1,3-dioxoisoindolin-5-yl)piperazin-1-yl)pentanoyl)pyrrolidin-3-yl)-2-fluoro-5-methoxybenzamide] | ≤ 50 nM | ≥ 80% |
| CN1C(=O)C(F)(F)CN(C2CCCC2)c2nc(Nc3ccc(C(=O)NC4CCN(CCOCCOCCNc5cccc6c5C(=O)N(C5CCC(=O)NC5=O)C6=O)CC4)cc3OCCO)ncc21 (stereo not drawn) [Example 98, 4-((9-cyclopentyl-7,7-difluoro-5-methyl-6-oxo-6,7,8,9-tetrahydro-5H-pyrimido[4,5-b][1,4]diazepin-2-yl)amino)-N-(1-(2-(2-(2-((2-(2,6-dioxopiperidin-3-yl)-1,3-dioxoisoindolin-4-yl)amino)ethoxy)ethoxy)ethyl)piperidin-4-yl)-3-(2-hydroxyethoxy)benzamide] | ≤ 500 nM | 60 to 80% |
| COc1cc(C(=O)NC2CCN(CCCCCCCCNc3cccc4c3C(=O)N(C3CCC(=O)NC3=O)C4=O)CC2)c(F)cc1Nc1ncc2c(n1)N(C1CCCC1)CC(F)(F)C(=O)N2C (stereo not drawn) [Compound 12, 4-((9-cyclopentyl-7,7-difluoro-5-methyl-6-oxo-6,7,8,9-tetrahydro-5H-pyrimido[4,5-b][1,4]diazepin-2-yl)amino)-N-(1-(8-((2-(2,6-dioxopiperidin-3-yl)-1,3-dioxoisoindolin-4-yl)amino)octyl)piperidin-4-yl)-2-fluoro-5-methoxybenzamide] | > 500 nM | 60 to 80% |
| COc1cc(C(=O)N[C@H]2CCN(C(=O)CCCCN3CCN(c4cccc5c4C(=O)N(C4CCC(=O)NC4=O)C5=O)CC3)C2)c(F)cc1Nc1ncc2c(n1)N(C1CCCC1)CC(F)(F)C(=O)N2C (stereo partly drawn) [Example 173, 4-((9-cyclopentyl-7,7-difluoro-5-methyl-6-oxo-6,7,8,9-tetrahydro-5H-pyrimido[4,5-b][1,4]diazepin-2-yl)amino)-N-((3S)-1-(5-(4-(2-(2,6-dioxopiperidin-3-yl)-1,3-dioxoisoindolin-4-yl)piperazin-1-yl)pentanoyl)pyrrolidin-3-yl)-2-fluoro-5-methoxybenzamide] | – | ≥ 80% |
| COc1cc(C(=O)N[C@H]2CCN(CC(=O)NCCOCCNc3cccc4c3C(=O)N(C3CCC(=O)NC3=O)C4=O)C2)c(F)cc1Nc1ncc2c(n1)N(C1CCCC1)CC(F)(F)C(=O)N2C (stereo partly drawn) [Compound 121, 4-((9-cyclopentyl-7,7-difluoro-5-methyl-6-oxo-6,7,8,9-tetrahydro-5H-pyrimido[4,5-b][1,4]diazepin-2-yl)amino)-N-((3S)-1-(2-((2-(2-((2-(2,6-dioxopiperidin-3-yl)-1,3-dioxoisoindolin-4-yl)amino)ethoxy)ethyl)amino)-2-oxoethyl)pyrrolidin-3-yl)-2-fluoro-5-methoxybenzamide] | ≤ 50 nM | ≥ 80% |
| COc1cc(C(=O)N[C@@H]2CCN(C(=O)CCN3CCN(c4cccc5c4C(=O)N(C4CCC(=O)NC4=O)C5=O)CC3)C2)c(F)cc1Nc1ncc2c(n1)N(C1CCCC1)CC(F)(F)C(=O)N2C (stereo partly drawn) [Compound 132, 4-((9-cyclopentyl-7,7-difluoro-5-methyl-6-oxo-6,7,8,9-tetrahydro-5H-pyrimido[4,5-b][1,4]diazepin-2-yl)amino)-N-((3R)-1-(3-(4-(2-(2,6-dioxopiperidin-3-yl)-1,3-dioxoisoindolin-4-yl)piperazin-1-yl)propanoyl)pyrrolidin-3-yl)-2-fluoro-5-methoxybenzamide] | ≤ 50 nM | ≥ 80% |
| COc1cc(C(=O)NC2CCN(CC(=O)NCCOCCNc3cccc4c3C(=O)N(C3CCC(=O)NC3=O)C4=O)CC2)c(F)cc1Nc1ncc2c(n1)N(C1CCCC1)CC(F)(F)C(=O)N2C (stereo not drawn) [Compound 35, 4-((9-cyclopentyl-7,7-difluoro-5-methyl-6-oxo-6,7,8,9-tetrahydro-5H-pyrimido[4,5-b][1,4]diazepin-2-yl)amino)-N-(1-(2-((2-(2-((2-(2,6-dioxopiperidin-3-yl)-1,3-dioxoisoindolin-4-yl)amino)ethoxy)ethyl)amino)-2-oxoethyl)piperidin-4-yl)-2-fluoro-5-methoxybenzamide] | ≤ 50 nM | ≥ 80% |
| COc1cc(C(=O)N[C@H]2CC[C@H](N3CCN(CCOCCNc4cccc5c4C(=O)N(C4CCC(=O)NC4=O)C5=O)CC3)CC2)c(F)cc1Nc1ncc2c(n1)N(C1CCCC1)CC(F)(F)C(=O)N2C (stereo partly drawn) [Example 103, 4-((9-cyclopentyl-7,7-difluoro-5-methyl-6-oxo-6,7,8,9-tetrahydro-5H-pyrimido[4,5-b][1,4]diazepin-2-yl)amino)-N-((1r,4r)-4-(4-(2-(2-((2-(2,6-dioxopiperidin-3-yl)-1,3-dioxoisoindolin-4-yl)amino)ethoxy)ethyl)piperazin-1-yl)cyclohexyl)-2-fluoro-5-methoxybenzamide] | ≤ 50 nM | ≥ 80% |
| COc1cc(C(=O)NC2CCN(CCOCCOCCOCCOCCOCCOCCOCCNC(=O)COc3cccc4c3C(=O)N(C3CCC(=O)NC3=O)C4=O)CC2)c(F)cc1Nc1ncc2c(n1)N(C1CCCC1)CC(F)(F)C(=O)N2C (stereo not drawn) [Compound 58, 4-((9-cyclopentyl-7,7-difluoro-5-methyl-6-oxo-6,7,8,9-tetrahydro-5H-pyrimido[4,5-b][1,4]diazepin-2-yl)amino)-N-(1-(1-((2-(2,6-dioxopiperidin-3-yl)-1,3-dioxoisoindolin-4-yl)oxy)-2-oxo-6,9,12,15,18,21,24-heptaoxa-3-azahexacosan-26-yl)piperidin-4-yl)-2-fluoro-5-methoxybenzamide] | – | < 60% |
| COc1cc(C(=O)NCCCCCNC(=O)COc2cccc3c2C(=O)N(C2CCC(=O)NC2=O)C3=O)c(F)cc1Nc1ncc2c(n1)N(C1CCCC1)CC(F)(F)C(=O)N2C (stereo not drawn) [Compound 162, 4-((9-cyclopentyl-7,7-difluoro-5-methyl-6-oxo-6,7,8,9-tetrahydro-5H-pyrimido[4,5-b][1,4]diazepin-2-yl)amino)-N-(5-(2-((2-(2,6-dioxopiperidin-3-yl)-1,3-dioxoisoindolin-4-yl)oxy)acetamido)pentyl)-2-fluoro-5-methoxybenzamide] | ≤ 50 nM | ≥ 80% |
| COc1cc(C(=O)NC2CCN(CCN3CCN(c4cccc5c4C(=O)N(C4CCC(=O)NC4=O)C5=O)CC3)CC2)c(F)cc1Nc1ncc2c(n1)N(C1CCCC1)CC(F)(F)C(=O)N2C (stereo not drawn) [Compound 66, 4-((9-cyclopentyl-7,7-difluoro-5-methyl-6-oxo-6,7,8,9-tetrahydro-5H-pyrimido[4,5-b][1, 4]diazepin-2-yl)amino)-N-(1-(2-(4-(2-(2,6-dioxopiperidin-3-yl)-1,3-dioxoisoindolin-4-yl)piperazin-1-yl)ethyl)piperidin-4-yl)-2-fluoro-5-methoxybenzamide] | ≤ 500 nM | 60 to 80% |
| COc1cc(C(=O)NCCCCCCCC(=O)Nc2cccc3c2C(=O)N(C2CCC(=O)NC2=O)C3=O)c(F)cc1Nc1ncc2c(n1)N(C1CCCC1)CC(F)(F)C(=O)N2C (stereo not drawn) [Compound 158, 4-((9-cyclopentyl-7,7-difluoro-5-methyl-6-oxo-6,7,8,9-tetrahydro-5H-pyrimido[4,5-b][1,4]diazepin-2-yl)amino)-N-(8-((2-(2,6-dioxopiperidin-3-yl)-1,3-dioxoisoindolin-4-yl)amino)-8-oxooctyl)-2-fluoro-5-methoxybenzamide] | ≤ 500 nM | 60 to 80% |
